Results reported in paper PMC6135860 (Neuropsychopharmacology, 2018).
Where two headings read alike, the source gives them in different places.

Legend:
humanized PDE4D mice [1] = assay: Y-maze spontaneous alternation test; type: in vivo, mouse
Experimental: (§1) The test consists of a single 5 min trial, in which the mouse was allowed to explore all three arms of the Y-maze [31]. Spontaneous alternation (%) was defined as consecutive entries in three different arms, divided by the number of possible alternations (total arm entries minus 2).
(§2) Y-maze spontaneous alternation test. The Y-maze apparatus made of matt blue Plexiglas had three identical arms (L 40 cm, W 5 cm, H 15 cm) placed at 120° from each other. The test consisted of a single 5 min trial, in which the mouse was allowed to explore all three arms of the Y-maze. The start arm was varied between animals to avoid placement bias. Spontaneous Alternation (%) was defined as consecutive entries in 3 different arms, divided by the number of possible alternations (total arm entries minus 2). Mice with less than 8 arm entries during the 5-min trial were excluded from the analysis.

humanized PDE4D mice [2] = assay: Novel object recognition, 24 h inter-trial interval; type: in vivo, mouse
Experimental: (§3) The novel object recognition test was performed as described elsewhere [32, 33]. Briefly, the task procedure consists of three phases: habituation phase on day 1 for 10 min, training (T1) phase on day 2 for 5 min, and testing (T2) phase on day 3 for 5 min. The duration each animal spent exploring the objects was recorded. Time spent exploring the identical objects in T1 was recorded as a1 and a2; time spent exploring the familiar and the novel objects in T2 was recorded as “a” and “b”, respectively. The following variables were calculated: e1 = a1 + a2, e2 = a + b, the relative discrimination index d2 = (b–a)/e2.
Novel object recognition. Mice were handled for 3-5 min for 5 days in a row. The novel object recognition test was performed in a Plexiglas open field box (L30 cm, W50 cm, H40 cm) as described elsewhere^64,65. Briefly, the task procedure consists of three phases: habituation, training (T1), and testing (T2). In the habituation phase (day 1), each animal is allowed to freely explore the apparatus for 10 min; then the animal is returned to its home cage. During the training phase (day 2), a single animal is placed in the center of the open field containing two identical objects located on the diagonal of the field, and allowed to explore for 5 min. After a retention interval after T1 of 24 h (long-term recall) or 1 h (scopolamine-impairment model), the animal was subjected to the T2 testing phase for 5 min, during which one familiar object and one novel object were presented. The arena and objects were thoroughly wiped with 70% ethanol after each trial to avoid the presence of any olfactory cues. The animals were considered to be exploring the object when directing their nose to the object at a distance of no more than 2 cm and/or touching or sniffing the object. The duration each animal spent exploring the objects was recorded. Time spent exploring the identical objects in T1 was recorded as a1 and a2; time spent exploring the familiar and the novel objects in T2 was recorded as ‘a’ and ‘b’, respectively. The following variables were calculated: e1 = a1 + a2, e2 = a + b, the relative discrimination index d2 = (b – a)/e2.

humanized PDE4D mice [3] = details: 1 mg/kg IP, hPDE4D mice
wild-type mice [4] = assay: Ketamine/xylazine anesthesia duration (surrogate of emesis); details: 1 mg/kg IP
[5] = target: PDE4 binding sites in humanized PDE4D mouse brain membranes; assay: [3H]-rolipram radioligand binding to brain membranes; details: for Ki: hPDE4D
Experimental: (§4) Mice were killed by decapitation, and the brains were immediately dissected on ice and homogenized in binding buffer using a Polytron homogenizer (Brinkman Instruments, Westbury, NY). The membrane fraction of the homogenate was obtained by centrifugation at 15,000 × g for 15 min, and resuspension of the pellet in the binding buffer.
(§5) Mice were killed by decapitation, and the brains were immediately dissected on ice and homogenized in binding buffer (50 mM Tris-HCl, 5 mM MgCl2, pH 7.5) using a Polytron homogenizer (Brinkman Instruments, Westbury, NY). The membrane fraction of the homogenate was obtained by centrifugation at 15,000 g for 15 min, and resuspension of the pellet in the binding buffer^29.
(§6) At the end of the incubation, reactions were stopped by adding 5 ml of the ice-cold binding buffer and rapid vacuum filtration through glass fiber filters that had been soaked in 0.3% polyethyleneimine. The filters were then washed twice with 5 ml of the ice-cold binding buffer, and discs of filter paper were collected for measurement of radioactivity by liquid scintillation counting.

wild-type mice [6] = assay: Y-maze spontaneous alternation test; type: in vivo, mouse
Experimental: as §1, §2

[7] = target: PDE4 binding sites in wild-type mouse brain membranes; assay: [3H]-rolipram radioligand binding to brain membranes; details: for Ki: wild-type
Experimental: as §4, §5, §6

wild-type mice [8] = assay: Novel object recognition, 24 h inter-trial interval; type: in vivo, mouse
Experimental: as §3
Novel object recognition. Mice were handled for 3-5 min for 5 days in a row. The novel object recognition test was performed in a Plexiglas open field box (L30 cm, W50 cm, H40 cm) as described elsewhere^64,65. Briefly, the task procedure consists of three phases: habituation, training (T1), and testing (T2). […] The duration each animal spent exploring the objects was recorded. Time spent exploring the identical objects in T1 was recorded as a1 and a2; time spent exploring the familiar and the novel objects in T2 was recorded as ‘a’ and ‘b’, respectively. The following variables were calculated: e1 = a1 + a2, e2 = a + b, the relative discrimination index d2 = (b – a)/e2.

humanized PDE4D mice [9] = assay: Scopolamine-induced memory impairment in novel object recognition, 1 h inter-trial interval; type: in vivo, mouse; details: scopolamine 0.1 mg/kg IP 30 min prior to training
Experimental: The novel object recognition test was performed as described elsewhere. […] The duration each animal spent exploring the objects was recorded. Time spent exploring the identical objects in T1 was recorded as a1 and a2; time spent exploring the familiar and the novel objects in T2 was recorded as “a” and “b”, respectively. The following variables were calculated: e1 = a1 + a2, e2 = a + b, the relative discrimination index d2 = (b–a)/e2.
For the scopolamine-induced memory impairment models, a single dose of scopolamine (0.1 mg/kg, IP) was administered 30 min before the training session of the NOR. Animals treated with H-89 or vehicle were implanted with 26-gauge guide cannula unilaterally (AP −0.2 mm from Bregma, ML +1 mm from the midline, DV−2mm from skull surface) and rested for a week before any tests.
Novel object recognition. Mice were handled for 3-5 min for 5 days in a row. The novel object recognition test was performed in a Plexiglas open field box (L30 cm, W50 cm, H40 cm) as described elsewhere^64,65. Briefly, the task procedure consists of three phases: habituation, training (T1), and testing (T2). In the habituation phase (day 1), each animal is allowed to freely explore the apparatus for 10 min; then the animal is returned to its home cage. During the training phase (day 2), a single animal is placed in the center of the open field containing two identical objects located on the diagonal of the field, and allowed to explore for 5 min. After a retention interval after T1 of 24 h (long-term recall) or 1 h (scopolamine-impairment model), the animal was subjected to the T2 testing phase for 5 min, during which one familiar object and one novel object were presented. […] The duration each animal spent exploring the objects was recorded. Time spent exploring the identical objects in T1 was recorded as a1 and a2; time spent exploring the familiar and the novel objects in T2 was recorded as ‘a’ and ‘b’, respectively. The following variables were calculated: e1 = a1 + a2, e2 = a + b, the relative discrimination index d2 = (b – a)/e2.

[10] = H-89 1 µg i.c.v. followed by BPN14770 0.03 mg/kg PO, hPDE4D mice
[11] = inhibition of 2 nM [3H]-rolipram binding, read-out: One-site Ki
[12] = inhibition of [3H]-rolipram binding, read-out: Two-site Ki1
[13] = inhibition of [3H]-rolipram binding, read-out: Two-site Ki2

O=S(=O)(NCCNC/C=C/c1ccc(Br)cc1)c1cccc2cnccc12 [H-89, reference compound]
effect on memory benefit of BPN14770 in Y-maze (humanized PDE4D mice [1]; [10]): significantly antagonized the effect of BPN14770 on memory | effect on memory benefit of BPN14770 in NOR (humanized PDE4D mice [2]; [10]): significantly antagonized the effect of BPN14770 on memory

COc1ccc(C2CNC(=O)C2)cc1OC1CCCC1 (centres unmarked) [Rolipram]
effect on ketamine/xylazine anesthesia duration (humanized PDE4D mice [3]): significantly reduced the anesthesia duration | effect on ketamine/xylazine anesthesia duration (wild-type mice [4]): significantly reduced the anesthesia duration | Ki [5, 11]: 1.66 ± 0.07 nM | Ki [5, 12]: 0.39 ± 0.07 nM | Ki [5, 13]: 6.1 ± 0.79 nM | MED in Y-maze (wild-type mice [6]): 0.1 mg/kg IP | Ki [7, 11]: 1.99 ± 0.11 nM | Ki [7, 12]: 0.75 ± 0.33 nM | Ki [7, 13]: 34.1 ± 26.8 nM | MED in Y-maze (humanized PDE4D mice [1]; humanized PDE4D mice): 0.1 mg/kg IP | MED in NOR (wild-type mice [8]): 0.1 mg/kg IP | MED in NOR (humanized PDE4D mice [2]; humanized PDE4D mice, 24 h inter-trial interval): 0.1 mg/kg IP

COc1ccc(C2CNC(=O)C2)cc1OC1CCCC1 (centres unmarked) [[^3H]-rolipram]
Kd ([5]; humanized PDE4D mouse brain membranes, read-out: Kd of [3H]-rolipram saturation binding): 3.72 nM | Kd ([7]; wild-type mouse brain membranes, read-out: Kd of [3H]-rolipram saturation binding): 3.84 nM

CN1[C@@H]2C[C@@H](OC(=O)[C@H](CO)c3ccccc3)C[C@H]1[C@@H]1O[C@@H]12 [scopolamine, reference compound]
effect on short-term memory in NOR (humanized PDE4D mice [9]): abolished short-term memory formation
